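Following 48 hours of exposure in 96-well plates, responses at five concentrations were used to interpolate endpoints linearly. The concentration for full growth arrest is given as TGI.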

Test in all cases: inhibition of tumour cell growth, NCI panel, 48 h
Assay [1] has as its system HS 578T breast.
Assay [2] has as its system KM20L2 colon.
Assay [3] relates to DMS 114 small cell lung.
Assay [4] relates to DMS 273 small cell lung.
Assay [5] has as its system LXFL 529 NSCLC.
The subject of assay [6] is XF 498 CNS.
The subject of assay [7] is SNB-78 CNS.
Assay [8] concerns M19-MEL melanoma.
The test system of assay [9] is RXF-631 renal.
Assay [10] has as its system DLD-1 colon.
Assay [11] concerns HOP-18 NSCLC.

Molecule `CCC(=O)NC(NNS(=O)(=O)c1ccc(C)cc1)(C(F)(F)F)C(F)(F)F` returned a TGI in [1] greater than 100 µM.

Consider `CCOP(=O)(OCC)/C(C#N)=C/c1cccn1C`, for which the TGI in assay [1] is greater than 100 µM.

The molecule `COC(=O)C1=CCC[C@H]2[C@@]1(COC(C)=O)CC[C@@H](C)[C@]2(C)CC(=O)c1ccoc1` came in with a TGI in [1] greater than 50 µM.

As for `NC(N)=NS(=O)(=O)c1ccc(NCc2cccc3c(=O)c4ccc(Cl)cc4oc23)cc1`, the TGI in assay [1] is 13.9 µM. The same measure, in the same setting: for `CCOC(=O)c1sc2c(c1OC(=O)c1ccco1)c(=O)n(-c1ccccc1)c(=S)n2-c1ccccc1` the value was greater than 100 µM; for `Cc1ccccc1-n1c(=O)nc2n(-c3ccc(C(C)(C)C)cc3)c3ccccc3cc-2c1=O`, 79.7 µM; for `C=C(Cl)C(Cl)(CBr)CCCC(C)C` (stereo not given), 26.9 µM. With `Cc1nsc2cc(Cl)n(C)c(=O)c12`, the TGI in [2], in assay [3], in assay [4], in [5], in [6] and in assay [7] was greater than 100 µM in each case. In addition, the TGI in [8], in [9] and in assay [10] was greater than 100 µM in each case. The molecule `C#CCNC(CCCN=C(N)N)C(=O)O` (stereo not given) returned a TGI in assay [1] greater than 100 µM. On the same count and under the same terms, for `N#Cc1ccc(N=NN2CCCC2)cc1` the value was greater than 100 µM. In assay [1], `O=C1CSc2ccnc(=O)n21` returned a TGI greater than 100 µM. In assay [1], `CN(C)Cc1cc(C(=O)/C=C/c2ccc(Cl)cc2Cl)cc(CN(C)C)c1O` returned a TGI of 15.8 µM. As for `CCOc1ccc(NC(=O)/C=C/c2ccco2)cc1`, the TGI in assay [1] was greater than 100 µM. In turn, `CC1=NN(c2ccccc2Cl)C2(C1)C(Cl)C(=O)N2c1nc2ccccc2s1` (stereo not given) returned a TGI in assay [1] greater than 100 µM. Same read-out and setting: the value for `COP(=O)(OC)[C@@](O)(c1ccccc1)[C@@H](O)[C@@H](O)c1ccccc1` was greater than 100 µM; that for `CC1CCC2C(C(=O)O[C@H]3C4C=CO[C@@H](OC5OC(CO)C(O)C(O)C5O)C4[C@@]4(CO)O[C@@H]34)=CO[C@@H](OC3OC(CO)C(O)C(O)C3O)C12` (stereo not given in full) was greater than 10 µM; that for `CCOC1OC(CO[Si](C)(C)C(C)(C)C)C(O)CC1n1ccc(=O)[nH]c1=O` (stereo not given) was greater than 100 µM. Molecule `COc1ccccc1OC/C(N=Cc1cccnc1)=N/NC(=O)c1ccncc1` displayed a TGI in assay [1] greater than 100 µM.

In the case of `O=C1NCC2(CCN(CC3COc4ccccc4O3)CC2)N1c1ccccc1` (stereo not given), the TGI in assay [1] is greater than 100 µM.

In the case of `O=C1/C(=C/c2ccc([N+](=O)[O-])cc2)Oc2cc(O)ccc21`, in assay [1], the TGI was determined as 47.9 µM. Take `C=Cc1c(-c2ccccc2)cnc2[nH]c3ccccc3c12`: the TGI in assay [3], in assay [4], in [5], in [6], in [8] and in assay [10] was greater than 50 µM each time.

Turning to `COc1cc(C(C)c2cc3c(cc2OCCCCCOc2cc4c(cc2C(C)c2cc(OC)c(OC)c(OC)c2)OCO4)OCO3)cc(OC)c1OC` (stereo not given), the TGI in assay [2], in assay [4], in assay [5], in assay [8] and in assay [10] was greater than 100 µM throughout.

Take `N#Cc1ccccc1NC(=O)C(O)C(O)C(O)C(O)C=O` (stereo not given): the TGI in [1] was greater than 100 µM. The same measure, in the same setting: the value for `COC(=O)c1ccc(C)cc1C1CN=NC12Cc1c(C)cccc1C2=O` (stereo not given) was greater than 100 µM; that for `CC(Oc1ccc(Cl)cc1Cl)C(=O)NN1C(=O)CC(=O)NC1=S` (stereo not given) was greater than 100 µM; that for `CCOC(=O)/C(=C\n1c(=O)sc2ccccc21)C(=O)c1ccccc1` was greater than 100 µM. Same read-out and setting: the value for `CC(C)(C)c1cc(C(C)(C)C)c(SSc2c(C(C)(C)C)cc(C(C)(C)C)c(O)c2O)c(O)c1O` was greater than 100 µM. Turning to `NC(N)=N/N=C/c1c(Cl)nc2n1CCS2`, the TGI in [1] is greater than 100 µM.

As for `CC(C)(CO)CNc1nc(N)nc(Cl)c1C=O`, in [1], the TGI came out at 70.7 µM. Turning to `Nc1ccc(C(=O)NN2C(=O)C(Cl)C2c2ccc(O)cc2)cc1` (stereo not given), the TGI in assay [2] stood at 41.9 µM; in [3], 25.7 µM; in [4], 35.1 µM; in [5], 31.7 µM; in assay [6], 27.8 µM; in assay [7] it was 44.6 µM. For the same molecule, the TGI was 38.8 µM in assay [8] and 33.4 µM in assay [10].

`CCOC(=O)C1Cc2ccc(C)cc2C1=O` (stereo not given) returned a TGI in assay [1] greater than 100 µM. Same read-out and setting: the value for `O=C(Cn1c(C(=O)/C=C/c2ccc(Cl)c(Cl)c2)nc2ccccc21)c1ccccc1` was 56.1 µM. For the molecule `O=C(O)C(Cc1ccc(O)cc1)N=Cc1nc(-c2ccccc2)oc1O` (stereo not given), the TGI in assay [2], in assay [3], in assay [4], in [5], in [6] and in [7] was greater than 100 µM each time. Further, the TGI in assay [11] and in assay [10] was greater than 100 µM throughout. Consider `CC(=O)NC1=C(NCCO)C(=O)c2ccccc2C1=O`, for which the TGI in assay [2] was greater than 50 µM; in assay [4], greater than 50 µM; in assay [5], greater than 50 µM; in assay [6], greater than 50 µM; in assay [7], greater than 50 µM; in [8], 18.6 µM. Moreover, in assay [10], the TGI is greater than 50 µM. With `O=[N+]([O-])/C(C(Cl)=C(Cl)Cl)=C(\NCc1ccccc1)Sc1ccccc1`, in assay [1], the TGI stood at 36 µM. Still for that read-out and setting: the value for `CN1CC[C@@]2(c3cccc(O)c3)CC(=O)/C(=C/c3ccc(Cl)c(Cl)c3)[C@H]1C2` was 7.19 µM; that for `CCCCCCCCCCCCCCCCNc1nc(=O)n(C2CC(O)C(COP(=O)(O)OC3CC(n4cc(F)c(=O)[nH]c4=O)OC3CO)O2)cc1F` (stereo not given) was greater than 100 µM. The same measure, in the same setting: the value for `CC(=O)/C=C1/C(=O)C(CC(C)C)=C1CC(C)C` was greater than 100 µM.

The record behind these values is PubChem BioAssay (NCI).
